PubChem BioAssay (NCI)
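Results reflect a 48-hour exposure of cells in 96-well plates to compound at five concentrations. TGI marks complete inhibition of growth.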

Columns and labels:
Assay in all cases: NCI tumour cell line growth inhibition, 48 h
[1] = tested on: HCT-116 colon
[2] = tested on: DLD-1 colon
[3] = tested on: XF 498 CNS
[4] = tested on: SF-295 CNS
[5] = tested on: EKVX NSCLC
[6] = tested on: SN12C renal
[7] = tested on: NCI/ADR-RES ovarian
[8] = tested on: OVCAR-4 ovarian
[9] = tested on: SR leukemia
[10] = tested on: HT29 colon
[11] = tested on: MDA-N
[12] = tested on: A549 NSCLC
[13] = tested on: 786-0 renal
[14] = tested on: HS 578T breast
[15] = tested on: T-47D breast
[16] = tested on: MOLT-4 leukemia
[17] = tested on: HCC-2998 colon
[18] = tested on: NCI-H226 lung
[19] = tested on: RXF-631 renal
[20] = tested on: DU-145 prostate
[21] = tested on: NCI-H23 lung
[22] = tested on: HL-60(TB) leukemia
[23] = tested on: HOP-92 NSCLC
[24] = tested on: UACC-257 melanoma
[25] = tested on: SK-MEL-2 melanoma
[26] = tested on: A498 renal
[27] = tested on: COLO 205 colon
[28] = tested on: RPMI-8226 leukemia
[29] = tested on: SF-268 CNS
[30] = tested on: HOP-62 NSCLC
[31] = tested on: UO-31 renal
[32] = tested on: RXF 393 renal
[33] = tested on: ACHN renal
[34] = tested on: MALME-3M melanoma
[35] = tested on: OVCAR-5 ovarian
[36] = tested on: NCI-H460 lung
[37] = tested on: TK-10 renal
[38] = tested on: IGROV1 ovarian
[39] = tested on: SNB-75 CNS
[40] = tested on: CAKI-1 renal
[41] = tested on: DMS 114 small cell lung
[42] = tested on: UACC-62 melanoma
[43] = tested on: SK-MEL-5 melanoma
[44] = tested on: K-562 leukemia
[45] = tested on: PC-3 prostate
[46] = tested on: BT-549 breast
[47] = tested on: M14 melanoma
[48] = tested on: MDA-MB-231 breast
[49] = tested on: DMS 273 small cell lung
[50] = tested on: SW-620 colon
[51] = tested on: M19-MEL melanoma
[52] = tested on: SK-MEL-28 melanoma
[53] = tested on: HCT-15 colon
[54] = tested on: U251 CNS
[55] = tested on: LXFL 529 NSCLC
[56] = tested on: SNB-19 CNS
[57] = tested on: MCF7 breast
[58] = tested on: CCRF-CEM leukemia
[59] = tested on: SK-OV-3 ovarian
[60] = tested on: SF-539 CNS
[61] = tested on: OVCAR-8 ovarian
[62] = tested on: SNB-78 CNS
[63] = tested on: KM20L2 colon
[64] = tested on: NCI-H522 lung
[65] = tested on: LOX IMVI melanoma
[66] = tested on: OVCAR-3 ovarian
[67] = tested on: KM12 colon
[68] = tested on: MDA-MB-435
[69] = tested on: HOP-18 NSCLC

In the case of C=C(c1nc2ccc(Cl)cc2[nH]c1=O)C(O)c1ccc(C(O)C(=O)c2nc3ccc(Cl)cc3[nH]c2=O)cc1 (stereo unspecified), the TGI [1] is reported as over 100 µM, the TGI [2] is reported as over 100 µM and the TGI [3] is reported as over 100 µM. For the same compound, the TGI [4] was over 100 µM, the TGI [5] was over 100 µM and the TGI [6] was over 100 µM. For the same compound, the TGI [7] was over 100 µM, the TGI [8] was over 100 µM and the TGI [9] was over 100 µM. For the same compound, the TGI [10] was over 100 µM, the TGI [11] was over 100 µM and the TGI [12] was over 100 µM. For the same compound, the TGI [13] was over 100 µM, the TGI [14] was over 100 µM and the TGI [15] was over 100 µM. For the same compound, the TGI [16] was over 100 µM, the TGI [17] was over 100 µM and the TGI [18] was over 100 µM. The TGI [19] was over 100 µM, the TGI [20] was over 100 µM and the TGI [21] was over 100 µM. The TGI [22] was 41.8 µM, the TGI [23] was over 100 µM and the TGI [24] was over 100 µM. For the same compound, the TGI [25] was over 100 µM, the TGI [26] was over 100 µM and the TGI [27] was over 100 µM. The TGI [28] was over 100 µM, the TGI [29] was over 100 µM and the TGI [30] was over 100 µM. It also gave a TGI [31] of over 100 µM, a TGI [32] of over 100 µM and a TGI [33] of over 100 µM. It also gave a TGI [34] of over 100 µM, a TGI [35] of over 100 µM and a TGI [36] of over 100 µM. For the same compound, the TGI [37] was over 100 µM, the TGI [38] was over 100 µM and the TGI [39] was over 100 µM. For the same compound, the TGI [40] was over 100 µM, the TGI [41] was over 100 µM and the TGI [42] was over 100 µM. It also gave a TGI [43] of over 100 µM, a TGI [44] of over 100 µM and a TGI [45] of over 100 µM. It also gave a TGI [46] of over 100 µM, a TGI [47] of over 100 µM and a TGI [48] of over 100 µM. For the same compound, the TGI [49] was over 100 µM, the TGI [50] was over 100 µM and the TGI [51] was over 100 µM. It also gave a TGI [52] of over 100 µM, a TGI [53] of over 100 µM and a TGI [54] of over 100 µM. It also gave a TGI [55] of over 100 µM, a TGI [56] of over 100 µM and a TGI [57] of over 100 µM. The TGI [58] was over 100 µM, the TGI [59] was over 100 µM and the TGI [60] was over 100 µM. The TGI [61] was over 100 µM, the TGI [62] was over 100 µM and the TGI [63] was over 100 µM. The TGI [64] was over 100 µM, the TGI [65] was over 100 µM and the TGI [66] was over 100 µM. For the same compound, the TGI [67] was over 100 µM and the TGI [68] was over 100 µM.

CC(C)c1ccccc1NC(=O)CCc1n[nH]c(=S)o1 was tested, and the TGI [1] was over 100 µM, the TGI [2] was over 89.2 µM and the TGI [3] was over 100 µM. It also gave a TGI [4] of over 100 µM, a TGI [5] of over 100 µM and a TGI [6] of over 100 µM. For the same compound, the TGI [8] was over 100 µM, the TGI [9] was over 100 µM and the TGI [10] was over 100 µM. It also gave a TGI [12] of over 100 µM, a TGI [13] of over 100 µM and a TGI [16] of over 100 µM. It also gave a TGI [17] of over 100 µM, a TGI [18] of over 100 µM and a TGI [19] of over 100 µM. It also gave a TGI [21] of over 100 µM, a TGI [22] of over 89.2 µM and a TGI [23] of over 100 µM. For the same compound, the TGI [24] was over 100 µM, the TGI [26] was over 100 µM and the TGI [27] was 58.3 µM. For the same compound, the TGI [28] was over 72.1 µM, the TGI [29] was over 100 µM and the TGI [30] was over 100 µM. For the same compound, the TGI [31] was over 100 µM, the TGI [32] was over 100 µM and the TGI [33] was over 100 µM. For the same compound, the TGI [34] was over 100 µM, the TGI [35] was over 100 µM and the TGI [36] was over 80.1 µM. The TGI [37] was over 100 µM, the TGI [38] was over 100 µM and the TGI [39] was over 100 µM. The TGI [40] was over 100 µM, the TGI [41] was over 100 µM and the TGI [42] was over 100 µM. It also gave a TGI [43] of over 100 µM, a TGI [44] of over 73.1 µM and a TGI [47] of over 100 µM. For the same compound, the TGI [49] was over 90.7 µM, the TGI [50] was over 56 µM and the TGI [51] was over 100 µM. The TGI [52] was over 100 µM, the TGI [53] was over 56.9 µM and the TGI [54] was over 100 µM. It also gave a TGI [55] of over 100 µM, a TGI [56] of over 100 µM and a TGI [58] of over 100 µM. The TGI [59] was over 100 µM, the TGI [60] was over 100 µM and the TGI [61] was over 100 µM. For the same compound, the TGI [69] was over 100 µM, the TGI [62] was over 100 µM and the TGI [63] was over 100 µM. It also gave a TGI [64] of over 100 µM, a TGI [65] of over 100 µM and a TGI [66] of over 100 µM. It also gave a TGI [67] of over 100 µM.
